Test results as given in ChEMBL document CHEMBL1128619, “Chemoenzymatic synthesis of enantiomers of a new retinoid to investigate the role of chirality in the biological response” (Bioorg Med Chem Lett, 1995).

Assays:
[1] = Half life in rat plasma was determined; format: ADME, organism-based
F9 [2] = assay: Cellular activity on the differentiation was quantified by measure of plasminogen activator in mouse embryonal teratocarcinoma F9 cells; format: functional, cell-based
F9 [3] = assay: Cellular activity on the differentiation was quantified by measure of plasminogen activator in mouse embryonal teratocarcinoma F9 cells; NA means not active; format: functional, cell-based

| Structure (SMILES) | half-life [1] | AC50 (F9 [2]) | AC50 (F9 [3]) |
| --- | --- | --- | --- |
| CC1(C)CCC(C)(C)c2cc(COC(=O)c3ccc(C(=O)O)cc3)ccc21 | 2.3 h | 140 nM | – |
| CC(OC(=O)c1ccc(C(=O)O)cc1)c1ccc2c(c1)C(C)(C)CCC2(C)C (stereo not drawn) | > 6 h | 350 nM | – |
| C[C@H](OC(=O)c1ccc(C(=O)O)cc1)c1ccc2c(c1)C(C)(C)CCC2(C)C | > 24 h | – | Not Active |
| C[C@@H](OC(=O)c1ccc(C(=O)O)cc1)c1ccc2c(c1)C(C)(C)CCC2(C)C | 6 h | 300 nM | – |
